# Columns and labels:
# Aldose reductase II = Aldose reductase II (Homo sapiens, UniProt P15121); assay: Aldose reductase inhibitory activity (NADPH decrease at 340 nm, DL-glyceraldehyde substrate); type: biochemical; conditions: pH 6.2, 100 mM DL-glyceraldehyde, 1.5 mM NADPH
# Procedure: A reaction solution containing a 200 mM of a phosphate buffer solution (pH 6.2), 1.5 mM of reduced nicotinamide adenine dinucleotide phosphate (NADPH), 1 mg/ml of bovine serum albumin, a test compound, and 100 mM of DL-glyceraldehyde as a substrate was prepared. Aldose reductase II (5.1×10^−1 unit/ml) was added to the solution to initiate the reaction, and the amount of NADPH reduced by the reaction was measured at an absorption wavelength of 340 nm using a spectrophotometer.
# mice = assay: Acute toxicity test; type: in vivo; conditions: 500 mg/kg body weight, three mice
# Procedure: Compound 28 was orally administered to three mice at a dose of 500 mg/kg body weight, the maximum amount considered to be prescribed for the mouse in one dose.
smiles,measurement,setting,value
"O=C(O)Cn1c2c(c3c(F)cc(F)cc31)CCN(Cc1ccccc1)C2=S [Compound 28, (2-Benzyl-5,7-difluoro-1-thioxo-1,2,3,4-tetrahydro-β-carbolin-9-yl)acetic acid]",IC50,Aldose reductase II,2.5 µM
same,Survival after single oral dose,mice,all of the three mice survived
same,"Abnormalities in internal organs, action, etc.",mice; oral,no abnormalities being observed
